# Where two headings read alike, the source gives them in different places.
# Format: in vivo, Japanese patients
compound,measurement,setting,value
"COc1cc2ncnc(Nc3ccc(F)c(Cl)c3)c2cc1NC(=O)/C=C/CN1CCCCC1 [dacomitinib, Dacomitinib]","Dry skin, number of patients with treatment-related AE","30 mg QD (n = 3), G3",0
same,"ECG QT prolonged, number of patients with treatment-related AE","30 mg QD (n = 3), G3",0
same,"Edema, number of patients with treatment-related AE","30 mg QD (n = 3), G3",0
same,"Fatigue, number of patients with treatment-related AE","30 mg QD (n = 3), G3",0
same,"Hematuria, number of patients with treatment-related AE","30 mg QD (n = 3), G3",0
same,"Hypertrichosis, number of patients with treatment-related AE","30 mg QD (n = 3), G3",0
same,"Leukopenia, number of patients with treatment-related AE","30 mg QD (n = 3), G3",0
same,"Nausea, number of patients with treatment-related AE","30 mg QD (n = 3), G3",0
same,"Palmar–plantar erythrodysesthesia, number of patients with treatment-related AE","30 mg QD (n = 3), G3",0
same,"Paronychia, number of patients with treatment-related AE","30 mg QD (n = 3), G3",0
same,"Proteinuria, number of patients with treatment-related AE","30 mg QD (n = 3), G3",0
same,"Rash, number of patients with treatment-related AE","30 mg QD (n = 3), G3",0
same,"Skin fissures, number of patients with treatment-related AE","30 mg QD (n = 3), G3",0
same,"Stomatitis, number of patients with treatment-related AE","30 mg QD (n = 3), G3",0
same,"Weight decreased, number of patients with treatment-related AE","30 mg QD (n = 3), G3",0
same,"Alanine aminotransferase increased, number of patients with treatment-related AE","45 mg QD (n = 7), All",2
same,"Aspartate aminotransferase increased, number of patients with treatment-related AE","45 mg QD (n = 7), All",2
same,"Blood bilirubin increased, number of patients with treatment-related AE","45 mg QD (n = 7), All",2
same,"Cheilitis, number of patients with treatment-related AE","45 mg QD (n = 7), All",2
same,"Conjunctivitis, number of patients with treatment-related AE","45 mg QD (n = 7), All",3
same,"Decreased appetite, number of patients with treatment-related AE","45 mg QD (n = 7), All",2
same,"Diarrhea, number of patients with treatment-related AE","45 mg QD (n = 7), All",7
same,"Dry skin, number of patients with treatment-related AE","45 mg QD (n = 7), All",5
same,"ECG QT prolonged, number of patients with treatment-related AE","45 mg QD (n = 7), All",0
same,"Edema, number of patients with treatment-related AE","45 mg QD (n = 7), All",2
same,"Fatigue, number of patients with treatment-related AE","45 mg QD (n = 7), All",5
same,"Hematuria, number of patients with treatment-related AE","45 mg QD (n = 7), All",2
same,"Hypertrichosis, number of patients with treatment-related AE","45 mg QD (n = 7), All",2
same,"Leukopenia, number of patients with treatment-related AE","45 mg QD (n = 7), All",3
same,"Nausea, number of patients with treatment-related AE","45 mg QD (n = 7), All",2
same,"Palmar–plantar erythrodysesthesia, number of patients with treatment-related AE","45 mg QD (n = 7), All",2
same,"Paronychia, number of patients with treatment-related AE","45 mg QD (n = 7), All",6
same,"Proteinuria, number of patients with treatment-related AE","45 mg QD (n = 7), All",3
same,"Rash, number of patients with treatment-related AE","45 mg QD (n = 7), All",7
same,"Skin fissures, number of patients with treatment-related AE","45 mg QD (n = 7), All",2
same,"Stomatitis, number of patients with treatment-related AE","45 mg QD (n = 7), All",5
same,"Weight decreased, number of patients with treatment-related AE","45 mg QD (n = 7), All",2
same,"Alanine aminotransferase increased, number of patients with treatment-related AE","45 mg QD (n = 7), G1",0
same,"Aspartate aminotransferase increased, number of patients with treatment-related AE","45 mg QD (n = 7), G1",0
same,"Blood bilirubin increased, number of patients with treatment-related AE","45 mg QD (n = 7), G1",0
same,"Cheilitis, number of patients with treatment-related AE","45 mg QD (n = 7), G1",2
same,"Conjunctivitis, number of patients with treatment-related AE","45 mg QD (n = 7), G1",3
same,"Decreased appetite, number of patients with treatment-related AE","45 mg QD (n = 7), G1",0
same,"Diarrhea, number of patients with treatment-related AE","45 mg QD (n = 7), G1",4
same,"Dry skin, number of patients with treatment-related AE","45 mg QD (n = 7), G1",5
same,"ECG QT prolonged, number of patients with treatment-related AE","45 mg QD (n = 7), G1",0
same,"Edema, number of patients with treatment-related AE","45 mg QD (n = 7), G1",1
same,"Fatigue, number of patients with treatment-related AE","45 mg QD (n = 7), G1",1
same,"Hematuria, number of patients with treatment-related AE","45 mg QD (n = 7), G1",2
same,"Hypertrichosis, number of patients with treatment-related AE","45 mg QD (n = 7), G1",2
same,"Leukopenia, number of patients with treatment-related AE","45 mg QD (n = 7), G1",1
same,"Nausea, number of patients with treatment-related AE","45 mg QD (n = 7), G1",1
same,"Palmar–plantar erythrodysesthesia, number of patients with treatment-related AE","45 mg QD (n = 7), G1",0
same,"Paronychia, number of patients with treatment-related AE","45 mg QD (n = 7), G1",1
same,"Proteinuria, number of patients with treatment-related AE","45 mg QD (n = 7), G1",2
same,"Rash, number of patients with treatment-related AE","45 mg QD (n = 7), G1",1
same,"Skin fissures, number of patients with treatment-related AE","45 mg QD (n = 7), G1",1
same,"Stomatitis, number of patients with treatment-related AE","45 mg QD (n = 7), G1",4
same,"Weight decreased, number of patients with treatment-related AE","45 mg QD (n = 7), G1",0
same,"Alanine aminotransferase increased, number of patients with treatment-related AE","45 mg QD (n = 7), G2",1
same,"Aspartate aminotransferase increased, number of patients with treatment-related AE","45 mg QD (n = 7), G2",1
same,"Blood bilirubin increased, number of patients with treatment-related AE","45 mg QD (n = 7), G2",1
same,"Cheilitis, number of patients with treatment-related AE","45 mg QD (n = 7), G2",0
same,"Conjunctivitis, number of patients with treatment-related AE","45 mg QD (n = 7), G2",0
same,"Decreased appetite, number of patients with treatment-related AE","45 mg QD (n = 7), G2",1
same,"Diarrhea, number of patients with treatment-related AE","45 mg QD (n = 7), G2",3
same,"Dry skin, number of patients with treatment-related AE","45 mg QD (n = 7), G2",0
same,"ECG QT prolonged, number of patients with treatment-related AE","45 mg QD (n = 7), G2",0
same,"Edema, number of patients with treatment-related AE","45 mg QD (n = 7), G2",1
same,"Fatigue, number of patients with treatment-related AE","45 mg QD (n = 7), G2",4
same,"Hematuria, number of patients with treatment-related AE","45 mg QD (n = 7), G2",0
same,"Hypertrichosis, number of patients with treatment-related AE","45 mg QD (n = 7), G2",0
same,"Leukopenia, number of patients with treatment-related AE","45 mg QD (n = 7), G2",2
same,"Nausea, number of patients with treatment-related AE","45 mg QD (n = 7), G2",1
same,"Palmar–plantar erythrodysesthesia, number of patients with treatment-related AE","45 mg QD (n = 7), G2",2
same,"Paronychia, number of patients with treatment-related AE","45 mg QD (n = 7), G2",5
same,"Proteinuria, number of patients with treatment-related AE","45 mg QD (n = 7), G2",1
same,"Rash, number of patients with treatment-related AE","45 mg QD (n = 7), G2",4
same,"Skin fissures, number of patients with treatment-related AE","45 mg QD (n = 7), G2",1
same,"Stomatitis, number of patients with treatment-related AE","45 mg QD (n = 7), G2",1
same,"Weight decreased, number of patients with treatment-related AE","45 mg QD (n = 7), G2",2

# Source: article PMC3523469 (Investigational New Drugs, 2012)
